≈ marks a conversion by molar mass, not a printed value. Where “and” joins values, the source holds several entries; their conditions need not be identical. Equal entries are not always repeated. Where two headings read alike, the source gives them in different places.
Key:
mice = assay: acute toxicity on intravenous administration to mice; format: in vivo
Description: (§1) acute toxicity on intravenous administration to mice
(§2) The acute toxicity of 1-o-acetoxybenzoyl-4-hydroxy-L-proline was investigated by comparison with an injectable aspirin, namely lysine acetylsalicylate. The acetylsalicylic acid content of the two compounds was substantially the same (about 50%).
(§3) (Intravenous administration to mice)
(§4) *x/5: number of dead animals amongst 5 animals tested.

[1] = acute toxicity, intraperitoneal administration to mice; details: mouse, in vivo, ip
Description: The LD50 of the compound according to the invention, when administered intraperitoneally to mice, was about 10g/kg, whilst it was about 3g/kg for lysine acetylsalicylate.

[2] = test system: phenylbenzoquinone cramping; assay: Analgesic activity, phenylbenzoquinone cramping test; format: in vivo; details: oral; for Percentage change in number of cramps versus control / Number of cramps / Percentage inhibition relative to the control animals: 2 hours before test; for Number of cramps: control 449
Method: The analgesic activity of 1-o-acetoxybenzoyl-4-hydroxy-L-proline was studied by means of the phenylbenzoquinone cramping test, in comparison with the same injectable aspirin as that used in Example 2, the two compouns being administered orally 2 hours before the test on groups of 10 animals; a control group of animals to which neither compound was administered was also used.

[3] = test system: carrageenin-induced plantar oedema; assay: Anti-inflammatory activity, carrageenin-induced plantar oedema test on rats (intraperitoneal); format: in vivo; details: for percentage variation in volume, (V2 - V1)/V1 × 100, individual rats: 200 mg/kg (expressed as weight of compound); for percentage variation in volume, (V2 - V1)/V1 × 100, individual rats / percentage variation in volume, mean (X): 3 hours; for percentage variation in volume, mean (X): controls 88.22% ± 10.5; for Percentage variation: mean oedema versus controls
Method: The anti-inflammatory activity of 1-o-acetoxybenzoyl-4-hydroxy-L-proline was studied by means of the carrageenin-induced plantar oedema test on rats.
[…] of each rat in three groups of 8 to 9 rats was injected with carrageenin at time Ho. The first group was a control group and the second and third groups were test groups. The volume (V1) of the paw was then measured, and the compounds to be tested were administered intraperitoneally. The volume (V2) of the same paw was measured again three hours later.

[4] = test system: hyperthermia caused by the injection of brewer's yeast; assay: Antipyretic activity, hyperthermia caused by injection of brewer's yeast; format: in vivo, rats; details: intraperitoneal; for central temperature: 200 mg to 400 mg/kg, 37.28 ± 0.052 at Ho
Method: The antipyretic activity of 1-o-acetoxybenzoyl-4-hydroxyl-L-proline was assessed by the hyperthermia caused by the injection of brewer's yeast 17 hours before the start of the experiment (groups of 8 rats + 1 comparison group without yeast). The first temperature measurement was made at time Ho and the compounds to be tested were then administered intraperitoneally. The central temperature was then checked 1 hour 30 minutes, 3 hours and 4 hours 30 minutes after Ho.

Solubility in water = format: physicochemical
[5] = test system: carrageenin-induced oedema; assay: Anti-inflammatory activity, carrageenin-induced oedema test on rats (intramuscular); format: in vivo; details: for % inhibition / % Variation in the volume of the oedema: 3 hours; for % Variation in the volume of the oedema: comparisons 107.39 ± 5.19
Method: The anti-inflammatory activity of 1-o-acetoxybenzoyl-L-proline was studied by means of the carrageenin-induced oedema test on rats. In this test, the antiinflammatory activity of the compound according to the invention was compared with that of an injectable aspirin, namely lysine acetylsalicylate.
the compounds were injected intramuscularly, 30 minutes before the carrageenin. The volume of the oedema was measured three hours afterwards.

rats = assay: Analgesic activity, Randall-Selitto test on rats; format: in vivo
Description: The analgesic activity of 1-o-acetoxybenzoyl-L-proline was studied on rats by means of the Randall-Selitto test (Arch. int. Pharmacodyn., 1957, 111, 409, 419).

[6] = acute toxicity on intravenous administration to mice; format: in vivo; details: mouse, in vivo; intravenous, mice
Description: as §1, §2, §3, §4

[7] = acute toxicity, oral administration to mice; details: mouse, in vivo, orally
gastric ulcers = details: administered orally; known disadvantage; cited from earlier work
[8] = 50 mg/kg (expressed as weight of compound)
[9] = 100 mg/kg (expressed as weight of compound)
[10] = 50 mg/kg (expressed as acetylsalicylic acid)
[11] = 100 mg/kg (expressed as acetylsalicylic acid)

CC(=O)Oc1ccccc1C(=O)N1CC(O)C[C@H]1C(=O)O (stereo partly drawn) [1-o-acetoxybenzoyl-4-hydroxy-L-proline]
toxicity (in words) (mice; intravenous, mice): substantially non-toxic
number of dead animals amongst 5 animals tested (mice; intravenous, mice, 700 mg/kg): 0/5
number of dead animals amongst 5 animals tested (mice; intravenous, mice, 1,500 mg/kg): 0/5
number of dead animals amongst 5 animals tested (mice; intravenous, mice, 3,000 mg/kg): 0/5
number of dead animals amongst 5 animals tested (mice; intravenous, mice, 4,000 mg/kg): 0/5
immediate symptoms (mice; mouse, in vivo, iv): practically no symptoms
LD50 [1]: ~10000 mg/kg
Percentage change in number of cramps versus control [2, 8]: -12%
Number of cramps [2, 8]: 396
Percentage change in number of cramps versus control [2, 9]: -57%
Number of cramps [2, 9]: 194
analgesic activity relative to the injectable aspirin ([2]; phenylbenzoquinone test): practically twice that of the injectable aspirin
percentage variation in volume, (V2 - V1)/V1 × 100, individual rats ([3]; listed as Compound according to the invention): 63.6% and 64% and 82.5% and 82.3% and 63.5% and 61.6% and 67.4% and 53.7% and 60.9%
percentage variation in volume, mean (X) ([3]; 200 mg/kg): 66.61 ± 9.7%
anti-inflammatory activity (in words) ([3]; 200 mg/kg, versus injectable aspirin): very good anti-inflammatory activity, markedly superior to that of the injectable aspirin
Percentage variation ([3]; 200 mg/kg): -24%
central temperature ([4]; 1 hr 30 mins after Ho): 36.12 °C
central temperature ([4]; 3 hrs after Ho): 36.40 °C
central temperature ([4]; 4 hrs 30 mins after Ho): 36.82 °C
antipyretic activity (in words) ([4]; versus injectable aspirin): greater than that of the injectable aspirin
solubility (Solubility in water; pH = 3): ~50 mg/mL (≈ 170 mM)

CC(=O)Oc1ccccc1C(=O)N1CCC[C@H]1C(=O)O [1-o-acetoxybenzoyl-L-proline]
% inhibition ([5]; 50 mg/kg): 2.48%
% Variation in the volume of the oedema ([5]; 50 mg/kg): 104.73 ± 7.23%
% inhibition ([5]; 100 mg/kg): 23.97%
% Variation in the volume of the oedema ([5]; 100 mg/kg): 81.65 ± 5.97%
% inhibition ([5]; 200 mg/kg): 29.50%
% Variation in the volume of the oedema ([5]; 200 mg/kg): 75.71 ± 4.8%
antiinflammatory activity (in words) ([5]; dose of 100 mg): comparable to that of lysine acetylsalicylate used at medium doses
Inhibition % (rats; 50 mg/kg, 1 hour): 59.49%
Inhibition % (rats; 50 mg/kg, 2 hours): 67.57%
Inhibition % (rats; 50 mg/kg, 4 hours): 44.00%
Inhibition % (rats; 100 mg/kg, 1 hour): 74.68%
Inhibition % (rats; 100 mg/kg, 2 hours): 89.19%
Inhibition % (rats; 100 mg/kg, 4 hours): 53.33%
Inhibition % (rats; 200 mg/kg, 1 hour): 98.73%
Inhibition % (rats; 200 mg/kg, 2 hours): 130.98%
Inhibition % (rats; 200 mg/kg, 4 hours): 104.01%
analgesic activity (in words) (rats; dose of 100 mg): comparable to that of lysine acetylsalicylate used at medium doses
solubility (Solubility in water): 50 mg/mL (≈ 180 mM)

CC(=O)Oc1ccccc1C(=O)O [Lysine acetylsalicylate, lysine acetylsalicylate, reference compound]
LD50 [6]: ~2000 mg/kg
immediate symptoms (mice; intravenous, mice): pronounced, with depression, ataxia and convulsions occurring
number of dead animals amongst 5 animals tested (mice; intravenous, mice, 1,500 mg/kg): 0/5
number of dead animals amongst 5 animals tested (mice; intravenous, mice, 2,000 mg/kg): 5/5
number of dead animals amongst 5 animals tested (mice; intravenous, mice, 3,000 mg/kg): 3/5
number of dead animals amongst 5 animals tested (mice; intravenous, mice, 3,500 mg/kg): 5/5
LD50 ([1]; intraperitoneally, mice, read-out: LD50): ~3000 mg/kg
LD50 [7]: 3000 mg/kg
Percentage inhibition relative to the control animals [2, 10]: -14%
Number of cramps [2, 10]: 386
Percentage inhibition relative to the control animals [2, 11]: -56%
Number of cramps [2, 11]: 196
percentage variation in volume, (V2 - V1)/V1 × 100, individual rats ([3]; listed as Injectable aspirin): 74.4% and 83.3% and 70.7% and 68.3% and 87.5% and 61% and 85% and 64%
percentage variation in volume, mean (X) ([3]; 200 mg/kg): 74.29% ± 9.36
Percentage variation ([3]; 200 mg/kg): -16%
central temperature ([4]; 1 hr 30 mins after Ho): 36.64 °C
central temperature ([4]; 3 hrs after Ho): 36.92 °C
central temperature ([4]; 4 hrs 30 mins after Ho): 36.90 °C
% inhibition ([5]; 50 mg/kg): 16.74%
% Variation in the volume of the oedema ([5]; 50 mg/kg): 89.41 ± 9.39%
% inhibition ([5]; 100 mg/kg): 27.56%
% Variation in the volume of the oedema ([5]; 100 mg/kg): 77.79 ± 5.39%
% inhibition ([5]; 200 mg/kg): 41.76%
% Variation in the volume of the oedema ([5]; 200 mg/kg): 62.54 ± 6.83%
Inhibition % (rats; 50 mg/kg, 1 hour): 72.98%
Inhibition % (rats; 50 mg/kg, 2 hours): 60.26%
Inhibition % (rats; 50 mg/kg, 4 hours): 65.79%
Inhibition % (rats; 100 mg/kg, 1 hour): 85.14%
Inhibition % (rats; 100 mg/kg, 2 hours): 97.44%
Inhibition % (rats; 100 mg/kg, 4 hours): 73.68%
Inhibition % (rats; 200 mg/kg, 1 hour): 105.40%
Inhibition % (rats; 200 mg/kg, 2 hours): 124.36%
Inhibition % (rats; 200 mg/kg, 4 hours): 111.84%

CC(=O)Oc1ccccc1C(=O)O [acetylsalicylic acid]
ulcerogenic activity (gastric ulcers): ulcerogenic

From patent US4123544A, “Acetylsalicylic acid derivatives” (priority 1977, dated 1978)
